Assay results taken from patent publication EP2444396A1, “PHOTOPROTECTIVE COMPOSITION” (Apoteknos Para La Piel, S.L., priority 2009, dated 2010).
Values after ≈ are worked out from the molar mass of the structure shown. Marks after values point to notes of the source that are not given here.

Legend:
[1] = UV spectrum: wavelengths of maximum absorption and absorbance (Cecil 2021 UV-Visible Spectrophotometer); format: physicochemical
[2] = Solubility in organic solvents; format: physicochemical; conditions: methanol, organic solvent or mixture, thermodynamic from solid; MeOH
[3] = system: Erythema induced by UVB radiation in mouse; assay: Photoprotection: erythema induced by UVB radiation in mouse skin; format: in vivo; conditions: intensity of erythema in application area versus surrounding non treated area (subjective criterion); 0.5% gel topical; listed as m-nitrotophine
[4] = Photostability evaluation (irradiation in MeOH, TLC analysis); format: physicochemical; conditions: saturated solution in 200 mL MeOH, 2 hours of irradiation, isolated by column chromatography
Method: All the irradiations preformed in the photostability studies were carried out in an ACE 7840 photoreactor using a 450W power ACE 7825 lamp.
The solvent used in the photostability test was methanol [MeOH] (ppa) (250 mL), using a concentration of […] of p-nitrolophine. The solution was irradiated for 2 hours, samples being taken at 10 minutes, 20 minutes, 1 hour and 2 hours, and being dried in a rotating evaporator. Each sample was analyzed by thin layer chromatography (TLC in Silica gel) using petroleum ether:ethyl acetate (4:1) as eluent. The chromatography plates were viewed under a 254 nm lamp and a 366 nm lamp, as well as by means of simultaneous viewing under both lamps (254 and 366 nm).
Specifically, three photoproducts (three blots) could be determined, which were isolated by preparative TLC.
A saturated solution of m-nitrolophine in MeOH was prepared to perform the study since the solubility in this solvent is low (approximately 0.2 mg/mL). Briefly, an amount of m-nitrolophine sufficient to ensure the saturation in 200 mL of MeOH throughout the night was left stirring. The solution was filtered and irradiated for 2 hours, samples of 10 mL being taken at 10 minutes, 20 minutes, 1 hour and 2 hours, and being dried in rotating evaporator. […]

[5] = system: MCF-7 breast cancer cell line; assay: E-Screen cell proliferation test; format: cell-based, human; conditions: MCF-7 cells; for Proliferative effect (PE) Mean: 144 hours, negative control = 1
From the text: The E-Screen proliferation test is based on the use of MCF-7 breast cancer cell line. The MCF-7 cells [which endogenously expressed the estrogen receptor alpha (ERα)], respond to the treatment with estradiol increasing its proliferative rate, synthesizing new proteins and transcribing certain specific genes. […] The test compares the number of cells or the cell proliferation obtained after 6 days of culture. The cells grow in culture medium supplemented with human serum lacking of estrogens, in the presence and/or absence of estradiol as well as of the chemical compounds suspected of having estrogenic activity. The E-Screen test was performed following the methodology previously described by Soto et al. ["An in culture bioassay to assess the estrogenicity of xenobiotics. […] Health Perspect. 103:844-850; 1995]. […] The assay was ended after 144 hours of subculture (exponential phase) after drawing out the medium and fixing the cells for the application of sulforhodamine-B technique. Finally, the cell growth for each experimental group is related to the growth obtained for the negative control (absence of hormone) and with respect to estradiol (positive control). Once the E-Screen test is performed, the maximum cell proliferation rate induced by the compound also known as proliferative effect (PE) was established by calculating the ratio existing between the maximum proliferation rate obtained for the compound and the proliferation rate of the negative control. The proliferation data corresponding with the successive dilutions of the compound were transformed after the application of the correction factor for the dilution of each experimental point, the arithmetic mean of the data obtained being calculated. Another parameter is the relative proliferative efficiency (RPE). […] In this assay, the estrogenicity E-Screen test commonly used to identify the hormonal activity of compounds interacting specifically with the estrogen receptor alpha (ERα), has been used. The assays were performed in triplicate for each concentration (range: 300-0.003 µg/ml) in at least three independent experiments.

[6] = Absorption spectrum in methanol (195 - 400 nm); format: physicochemical; conditions: peak wavelength, 10 mg/ml
Method: In order to determine the absorption spectrum, a solution of 10 mg/ml of methanol was prepared from each of the substances. The methanol in turn was used to adjust the zero absorbance in each of the wavelengths in the range of 195 - 400 nm.

[7] = system: Erythema induced by UVB radiation in mouse; assay: Photoprotection: erythema induced by UVB radiation in mouse skin; format: in vivo; set-up: key to Erythema induced by UVB radiation in mouse: presence (+); absence (-); conditions: 0.5% gel topical, about 2.5 kJ/m^2 UVB, 24 hours after exposure; for % Protection: percentage of protected animals
From the text: The effect of p-nitrolophine and m-nitrolophine on erythema due to exposing the mouse skin to an irradiation source at maximum in the UVB region has been studied in these assays. The results obtained have been compared with the effect of 4-methylbenzylidene camphor (P5000) a substance considered as a UVB solar filter and with the effect of butyl methoxydibenzoylmethane (P1789) an UVA type filter, both products being commonly used in antisolar cosmetics.
35 male mice weighing more than 20 grams have been used. After receiving them, the animals were acclimated for 7 days at the place where the assays were preformed, they were being placed in a cage with controlled temperature (22°C), with relative humidity between 50% and 75%, replacing fresh filtered air approximately 10 times per hour and with 12 h light/dark cycles (7.00 - 19.00 light and from 19.00 to 7.00 dark). For this period and during the experimental period, the animals were fed ad libitum with standard diet for rodents and running water as drink.
The animals were randomly distributed into 4 experimental groups according to Table 7. The products to be tested were directly used, applying them in the form of a gel on an area of the skin such that each animal form its own control.
The test was performed following the method described by Winder et al. ["A study of Pharmacological influences on ultraviolet erythema in guinea pigs". Arch. Int Pharmacodyn, 116:261-292; 1958] and by other authors [Wendy et al. "The local antinociceptive and topical antiinflamatory effects of propyl gallate in rodents". Br. J. Pharmacol, 58:573 -581; 1976; Katiyar et al. "Protective Effects of Silymarin Against Photocarcinogenesis in a Mouse Skin Model". J Natl Cancer Inst 89:556-65; 1997] with slight modifications. The day […] the assay, as much hair as possible were removed from the animals by applying a layer of commercial hair-removing cream to remove all the trace of hair and to leave the skin of the back completely bare. The rest of the hair-removing cream were removed by means of washing and rinsing with running water and the animals were the returned to their corresponding cages where they remained until the following day.
On the day of the assay, the substances to be assayed were blindly applied on the back of the previously labelled animals following a random pattern (randomized). After applying the corresponding treatments, the animals were placed and pinned to the presentation platform of the equipment. The animals were then placed 8 cm from an ultraviolet light source of 4*40w with 313 nm of fundamental emission and a range comprised approximately between 290 and 350 nm and with an anti-UVC filter. The emission spectrum of said light source is depicted in Figure 1.
The exposure was maintained until all the animals have received an approximate total dose of 2.5 kJ/m^2. The dose of irradiation applied was determined by means of a ultraviolet light detector, the response curve of which is shown in Figure 2.
Twenty four hours after ending the exposure, the back of the animals was photographed and they were returned to their cages. The evaluation of erythema was performed by means of a positive/negative criterion, the percentage of protected animals being obtained. The statistic significance of the difference was evaluated by means of the non-parametric Fisher Test.

UV spectrum A (a.u) ([1]; absorbance at the maximum of the same line): 1.194 a.u
UV spectrum λ (nm) ([1]; wavelengths of the maximum absorption): 309.0 nm
solubility [2]: ~200 µg/mL (≈ 586 µM)
photodecomposition product [4]: 5.7 mg
maximum absorption [6]: 309 nm
SMILES: O=[N+]([O-])c1cccc(-c2nc(-c3ccccc3)c(-c3ccccc3)[nH]2)c1 [m-nitrolophine, 2-(3-nitrophenyl)-4,5-diphenyl-1H-imidazole]
% Suppression [3]: 60 - 80%*
estrogenicity ([5]; E-Screen, conclusion in words): not an estrogenic compound for the receptor alpha
Proliferative effect (PE) Mean ([5]; 3x10^-1 mg/ml): 1.45
Proliferative effect (PE) Mean ([5]; 3x10^-2 mg/ml): 1.30
Proliferative effect (PE) Mean ([5]; 3x10^-3 mg/ml): 1.19
Proliferative effect (PE) Mean ([5]; 3x10^-4 mg/ml): 1.10
Proliferative effect (PE) Mean ([5]; 3x10^-5 mg/ml): 1.08
Proliferative effect (PE) Mean ([5]; 3x10^-6 mg/ml): 1.06
proliferative effect ([5]; all the tested concentrations range (300-0.003 µg/ml)): lower than 1.5
Erythema induced by UVB radiation in mouse ([7]; individual animals No. 1-10): -
% Protection [7]: 100%
% Protection ([7]; listed as m-nitrotophine): 100%*
